Measurements as given in ChEMBL document CHEMBL1123372, “6,7-Dichloro-1-(3,4,5-trimethoxybenzyl)-1,2,3,4-tetrahydroisoquinoline . A structurally novel beta-adrenergic receptor blocking agent” (J Med Chem, 1986).

Experiments:
Assay type in all cases: physicochemical
[1] = Compound was evaluated for pKa by titration of the compounds in 1:2 methyl alcohol and water; settings: read-out: pKa app
[2] = Partition coefficient (logP); settings: octanol/water
[3] = Compound was evaluated for distribution coefficient; settings: octanol/water
[4] = Compound was evaluated for pKa by titration of the compounds in 1:2 methyl alcohol and water.; settings: read-out: pKa app

pKa [4] | SMILES | pKa [1] | logP [2] | logD [3]
 | CC(C)NCC(O)c1ccc(Cl)c(Cl)c1 (stereo unspecified) [DICHLOROISOPROTERENOL] | 8.7 | 2.55 | 1.26
7.6 | COc1cc(C[C@@H]2NCCc3cc(O)c(O)cc32)cc(OC)c1OC [TRETOQUINOL] |  | 2.23 | 1.79
